Source: patent US5869479A, “Treatment of upper airway allergic responses” (Schering Corporation, priority 1997, dated 1999)

Legend:
nasal airway resistance = test: Nasal airway resistance (NAR) in anesthetized cats after aerosolized Compound 48/80 challenge; assay type: in vivo
Description: (§1) Adult cats are anesthetized with intraperitoneal injections of sodium pentobarbital. The right femoral artery and vein are cannulated for measurement of blood pressure with a pressure transducer, and for the administration of drugs. The animals are paralyzed with intravenous gallamine triethiodide and subsequently mechanically ventilated with room air, using an animal ventilator. After isolation of the cervical […], a cuffed endotracheal tube is advanced rostrally into the posterior nasopharynx and inflated to form an air-tight seal, allowing continuous measurement of pressure changes within the nasal cavity. The right nasal airway is occluded with dental impression compound, and humidified air is passed through the left nasal airway at about 1.7 liters per minute. By means of pressure transducers, nasal airway pressure and insufflation pressure can be derived and electronically recorded.
The known histamine releaser "Compound 48/80" (the condensation product of N-methyl-p-methoxyphenethylamine with formaldehyde, sold by Sigma Chemical Company, St. Louis, Mo., USA), as a 1.0 percent solution in 0.9 percent aqueous saline solution, is aerosolized into the air stream for 2 minutes to induce an increased NAR. This effect is used to study the decongestant effects of various test substances, administered to the animals intravenously 10 minutes prior to the introduction of Compound 48/80. These substances include 0.9 percent aqueous saline (normal saline "Vehicle"), phenylpropanolamine hydrochloride at 1.0 mg/Kg of the free drug, thioperamide maleate at 10 mg/Kg of the free drug and chlorpheniramine maleate at 0.8 mg/Kg of the free drug, all of the drug compounds being in solution in 0.9 percent aqueous saline. […]

histamine H3 receptor = target: T1, histamine H3 receptor (Cavia porcellus, UniProt Q9JI35); test: Guinea pig brain membrane assay, affinity for histamine H3 receptor binding sites (Korte et al.); conditions: Example 5
T1 construct: from tissue; host or cells: guinea pig brain membranes
T1 sequence (Q9JI35 whole entry): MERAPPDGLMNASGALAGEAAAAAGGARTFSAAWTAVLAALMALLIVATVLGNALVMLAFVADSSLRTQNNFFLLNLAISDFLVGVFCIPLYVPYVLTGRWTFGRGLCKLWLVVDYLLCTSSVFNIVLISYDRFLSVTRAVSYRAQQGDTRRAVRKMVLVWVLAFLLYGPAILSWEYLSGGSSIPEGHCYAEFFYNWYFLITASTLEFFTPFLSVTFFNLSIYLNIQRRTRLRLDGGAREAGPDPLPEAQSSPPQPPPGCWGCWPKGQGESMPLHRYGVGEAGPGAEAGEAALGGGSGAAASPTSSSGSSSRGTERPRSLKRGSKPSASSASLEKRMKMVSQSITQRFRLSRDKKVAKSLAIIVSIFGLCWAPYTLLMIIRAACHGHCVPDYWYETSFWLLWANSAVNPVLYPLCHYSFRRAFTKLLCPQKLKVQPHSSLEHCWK
Description: A particularly useful screening assay measures binding to sites in guinea pig brain membranes. This test is described in detail by Korte et al., "Characterization and Tissue Distribution of H3 Histamine Receptors in Guinea Pigs by N^α -Methylhistamine," in Biochemical and Biophysical Research Communications, Vol. 168, pages 979-986 (1990), and quantifies the displacement of bound radiolabeled N^α -methylhistamine from tissues by candidate compounds. Results are expressed as "Ki " values, in nanoMolar (nM) units, which values can be considered as being dissociation constants for the H3 antagonist on the H3 receptor system, or an index of antagonist affinity for the receptor. The present inventors have evidence that decongestant activity in their invention for a given H3 antagonist concentration can be predicted to increase as the Ki value obtained from the assay for an antagonist decreases. In general, Ki values less than about 200 nM are considered necessary for an agent to be useful as an H3 antagonist in the invention.
The affinity of various histamine H3 receptor antagonists for binding sites is determined by a guinea pig brain membrane assay, according to the procedure of Korte et al., Biochemical and Biophysical Research Communications, Vol. 168, pages 979-986 (1990).

[1] = Blood pressure change from baseline in the cat experiments; assay type: in vivo, cats; conditions: Example 4, phenylpropanolamine 1 mg/Kg
Description: as §1
The known histamine releaser "Compound 48/80" (the condensation product of N-methyl-p-methoxyphenethylamine with formaldehyde, sold by Sigma Chemical Company, St. Louis, Mo., USA), as a 1.0 percent solution in 0.9 percent aqueous saline solution, is aerosolized into the air stream for 2 minutes to induce an increased NAR. This effect is used to study the decongestant effects of various test substances, administered to the animals intravenously 10 minutes prior to the introduction of Compound 48/80. These substances include 0.9 percent aqueous saline (normal saline "Vehicle"), phenylpropanolamine hydrochloride at 1.0 mg/Kg of the free drug, thioperamide maleate at 10 mg/Kg of the free drug and chlorpheniramine maleate at 0.8 mg/Kg of the free drug, all of the drug compounds being in solution in 0.9 percent aqueous saline.
Blood pressure data from the experiments of the preceding examples are examined, to determine the effects of certain congestion-preventing treatments.

[2] = Example 1, i.v. 10 min before Compound 48/80, phenylpropanolamine 1.0 mg/Kg, thioperamide 10 mg/Kg, chlorpheniramine 0.8 mg/Kg (free drug), vehicle 9.1, baseline 2.6

Compound: CN(C)CCC(c1ccc(Cl)cc1)c1ccccn1 (centres unmarked) [Chlorpheniramine, chlorpheniramine]
- NAR (nasal airway resistance) (nasal airway resistance; [2]): 6.0 centimeters of water/liters pe

Compound: NC(=NCc1ccc(Cl)cc1)SCCCc1cnc[nH]1 [Clobenpropit, clobenpropit]
- Prevention of nasal congestion (in words) (nasal airway resistance; Example 3, clobenpropit alone or with chlorpheniramine 0.8 mg/Kg): does not exhibit significant prevention of nasal congestion
- NAR (nasal airway resistance) (nasal airway resistance; Example 3, i.v., clobenpropit 1.0 mg/Kg alone, vehicle 9.1): 5.5 centimeters of water/liters pe

Compound: COc1ccc(C/C(=N\O)C(=O)NCCc2c[nH]cn2)cc1Br [Verongamine, verongamine]
- Ki (histamine H3 receptor): > 200 nM
- Statistical difference of NAR from vehicle (nasal airway resistance; Example 5, verongamine 10 mg/Kg): not statistically different from that for the vehicle
- NAR (nasal airway resistance) (nasal airway resistance; Example 5, verongamine 10 mg/Kg, different vehicle (vehicle 7.8)): 7.3 centimeters of water/liters pe

Compound: CC(N)C(O)c1ccccc1 (centres unmarked) [Phenylpropanolamine, phenylpropanolamine]
- Blood pressure, change from baseline ([1]; i.v., thioperamide 10 mg/Kg + CPA 0.8 mg/kg, vehicle -16): +31 mm Hg
- Statistical difference of blood pressure change from vehicle [1]: statistically different from those for the vehicle
- Effect on blood pressure (in words) ([1]; thioperamide 10 mg/Kg + CPA 0.8 mg/kg): significantly increases blood pressure
- NAR (nasal airway resistance) (nasal airway resistance; [2]): 2.9 centimeters of water/liters pe
- Statistical difference of NAR from vehicle (nasal airway resistance; Example 1, phenylpropanolamine 1.0 mg/Kg i.v.): statistically different result from that for the vehicle
- Nasal congestion-preventing effect compared with thioperamide + chlorpheniramine combination (nasal airway resistance; Example 4 comment, phenylpropanolamine 1 mg/Kg): approximately equivalent nasal congestion-preventing effect

Compound: CCOC(=O)N1CCC(=C2c3ccc(Cl)cc3CCc3cccnc32)CC1 [Loratadine, loratadine]
- NAR (nasal airway resistance) (nasal airway resistance; Example 6, loratadine 3 mg/Kg, thioperamide 10 mg/Kg, vehicle 30% dimethylsulfoxide, 40% ethanol, 30% normal saline (vehicle 12.6)): 10.2 centimeters of water/liters pe

Compound: S=C(NC1CCCCC1)N1CCC(c2cnc[nH]2)CC1 [Thioperamide, thioperamide]
- NAR (nasal airway resistance) (nasal airway resistance; [2]): 6.7 centimeters of water/liters pe
